Active and inactive are the calls of the source.
Assays:
[1] = molecular target: T1, Orexin receptor type 2 (Homo sapiens, UniProt O43614); assay: Counterscreen assay for antagonists of the orexin 1 receptor (OX1R; HCRTR1): Homogeneous Time Resolved Fluorescence (HTRF)-based cell-based dose response assay for antagonists of the orexin 2 receptor (OX2R; HCRTR2), run by assay provider.; format: functional
T1 sequence (O43614 whole entry): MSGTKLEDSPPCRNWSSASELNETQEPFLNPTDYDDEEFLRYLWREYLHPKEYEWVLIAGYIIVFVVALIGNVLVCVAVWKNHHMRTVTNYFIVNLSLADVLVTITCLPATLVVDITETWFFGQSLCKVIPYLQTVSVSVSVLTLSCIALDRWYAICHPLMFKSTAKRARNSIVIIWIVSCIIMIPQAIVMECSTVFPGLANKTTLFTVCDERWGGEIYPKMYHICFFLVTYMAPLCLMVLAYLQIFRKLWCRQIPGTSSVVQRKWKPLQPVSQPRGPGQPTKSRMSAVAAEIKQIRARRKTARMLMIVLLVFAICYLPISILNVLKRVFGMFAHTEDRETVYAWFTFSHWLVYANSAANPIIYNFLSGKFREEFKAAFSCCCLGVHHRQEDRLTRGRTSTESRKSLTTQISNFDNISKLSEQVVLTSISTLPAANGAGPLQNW

[2] = molecular target: T2, Orexin/Hypocretin receptor type 1 (Homo sapiens, UniProt O43613); assay: (§1) Fluorescence-based cell-based high throughput dose response assay for antagonists of the orexin 1 receptor (OX1R; HCRTR1). [Related pubchem assays (depositor defined):AID434989, AID435008, AID463079, AID485270, AID492963, AID492964, AID492965, AID493232, AID504717, AID504718]; format: functional
T2 sequence (O43613 whole entry): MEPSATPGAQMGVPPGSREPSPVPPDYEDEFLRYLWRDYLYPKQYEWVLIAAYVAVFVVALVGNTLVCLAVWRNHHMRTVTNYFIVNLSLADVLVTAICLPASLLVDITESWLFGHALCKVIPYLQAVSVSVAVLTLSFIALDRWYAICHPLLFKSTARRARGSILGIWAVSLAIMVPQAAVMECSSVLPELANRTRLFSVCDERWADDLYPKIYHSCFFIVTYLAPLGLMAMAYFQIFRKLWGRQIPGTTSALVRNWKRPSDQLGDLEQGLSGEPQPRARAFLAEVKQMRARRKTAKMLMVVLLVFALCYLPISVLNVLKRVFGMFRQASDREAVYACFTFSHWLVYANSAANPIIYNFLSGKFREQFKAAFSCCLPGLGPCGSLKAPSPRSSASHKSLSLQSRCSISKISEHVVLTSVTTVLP

[3] = (§2) Counterscreen for antagonists of the orexin 1 receptor (OX1R; HCRTR1): Fluorescence-based cell-based high throughput dose response assay to identify antagonists of the parental CHO cell line. [Related pubchem assays (depositor defined):AID434989, AID435008, AID463079, AID485270, AID492963, AID492964, AID492965, AID493232, AID504699, AID504701]; format: functional
[4] = molecular target: T2, Orexin/Hypocretin receptor type 1; assay: as §1, with “Homogeneous Time Resolved Fluorescence (HTRF)-based” for “Fluorescence-based”; format: functional
[5] = tested on: CHO-K1; assay: as §2, with “Homogeneous time resolved fluorescence (HTRF)-based” for “Fluorescence-based”, “cell-based” for “cell-based high throughput”, “CHO-K1” for “CHO”; format: functional; conditions: Cricetulus griseus;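 also: potency for inhibition of ATP-stimulated IP1 production as antagonists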
[6] = molecular target: T1, Orexin receptor type 2; assay: Counterscreen assay for antagonists of the orexin 1 receptor (OX1R; HCRTR1): Fluorescence-based cell-based dose response assay for antagonists of the orexin 2 receptor (OX2R; HCRTR2), run by assay provider.; format: functional
[7] = molecular target: T3, Fatty acid synthase (Homo sapiens, UniProt P49327); assay: FAS thioesterase domain inhibitors, dose response, biochemical, endpoint fluorescence intensity, uHTS hits (AID 624327); format: functional;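 also: fluorescence from hydrolysis of an O-methyl fluorescein acyl ester substrate by the enzyme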
[8] = molecular target: T3, Fatty acid synthase; assay: FAS thioesterase domain inhibitors, dose response, biochemical, kinetic fluorescence intensity (AID 624326); format: functional;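 also: rate of fluorescence rise from hydrolysis of a fluorogenic O-methyl fluorescein ester substrate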
[9] = HEp-2 cell cytotoxicity, dose response, cytotoxicity control for RSV inhibitor project, HTS (AID 2410); format: functional; conditions: human respiratory syncytial virus
[10] = molecular target: Kallikrein-7 (Homo sapiens, UniProt P49862); assay: Fluorescence Intensity-based biochemical primary high throughput dose response assay to identify activators of kallikrein-7 (K7) zymogen.
[11] = HepG2 cell cytotoxicity, dose response, cytotoxicity control, plate reader, cherry-pick, antagonist series (AID 743416); format: functional, cell-based
[12] = HEK293 cell cytotoxicity, dose response, cytotoxicity control, plate reader, cherry-picked samples (AID 743446); format: functional, cell-based
[13] = MC4R antagonists, dose response, counter-screen for LGR2 antagonist project, cell-based, plate reader, cherry pick (AID 743444); format: functional;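 also: transfected HEK 293 cells stimulated with alpha-MSH peptide; potency of inhibitors of the alpha-MSH evoked signal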
[14] = LGR2 antagonists, dose response, cell-based, HEK293, CRE-luciferase reporter, cherry pick, set 2 (AID 743343); format: functional;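 also: transfected cells were stimulated with diluted bursicon conditioned medium after compound addition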

T3 sequence (P49327 whole entry, the tested form may be a part): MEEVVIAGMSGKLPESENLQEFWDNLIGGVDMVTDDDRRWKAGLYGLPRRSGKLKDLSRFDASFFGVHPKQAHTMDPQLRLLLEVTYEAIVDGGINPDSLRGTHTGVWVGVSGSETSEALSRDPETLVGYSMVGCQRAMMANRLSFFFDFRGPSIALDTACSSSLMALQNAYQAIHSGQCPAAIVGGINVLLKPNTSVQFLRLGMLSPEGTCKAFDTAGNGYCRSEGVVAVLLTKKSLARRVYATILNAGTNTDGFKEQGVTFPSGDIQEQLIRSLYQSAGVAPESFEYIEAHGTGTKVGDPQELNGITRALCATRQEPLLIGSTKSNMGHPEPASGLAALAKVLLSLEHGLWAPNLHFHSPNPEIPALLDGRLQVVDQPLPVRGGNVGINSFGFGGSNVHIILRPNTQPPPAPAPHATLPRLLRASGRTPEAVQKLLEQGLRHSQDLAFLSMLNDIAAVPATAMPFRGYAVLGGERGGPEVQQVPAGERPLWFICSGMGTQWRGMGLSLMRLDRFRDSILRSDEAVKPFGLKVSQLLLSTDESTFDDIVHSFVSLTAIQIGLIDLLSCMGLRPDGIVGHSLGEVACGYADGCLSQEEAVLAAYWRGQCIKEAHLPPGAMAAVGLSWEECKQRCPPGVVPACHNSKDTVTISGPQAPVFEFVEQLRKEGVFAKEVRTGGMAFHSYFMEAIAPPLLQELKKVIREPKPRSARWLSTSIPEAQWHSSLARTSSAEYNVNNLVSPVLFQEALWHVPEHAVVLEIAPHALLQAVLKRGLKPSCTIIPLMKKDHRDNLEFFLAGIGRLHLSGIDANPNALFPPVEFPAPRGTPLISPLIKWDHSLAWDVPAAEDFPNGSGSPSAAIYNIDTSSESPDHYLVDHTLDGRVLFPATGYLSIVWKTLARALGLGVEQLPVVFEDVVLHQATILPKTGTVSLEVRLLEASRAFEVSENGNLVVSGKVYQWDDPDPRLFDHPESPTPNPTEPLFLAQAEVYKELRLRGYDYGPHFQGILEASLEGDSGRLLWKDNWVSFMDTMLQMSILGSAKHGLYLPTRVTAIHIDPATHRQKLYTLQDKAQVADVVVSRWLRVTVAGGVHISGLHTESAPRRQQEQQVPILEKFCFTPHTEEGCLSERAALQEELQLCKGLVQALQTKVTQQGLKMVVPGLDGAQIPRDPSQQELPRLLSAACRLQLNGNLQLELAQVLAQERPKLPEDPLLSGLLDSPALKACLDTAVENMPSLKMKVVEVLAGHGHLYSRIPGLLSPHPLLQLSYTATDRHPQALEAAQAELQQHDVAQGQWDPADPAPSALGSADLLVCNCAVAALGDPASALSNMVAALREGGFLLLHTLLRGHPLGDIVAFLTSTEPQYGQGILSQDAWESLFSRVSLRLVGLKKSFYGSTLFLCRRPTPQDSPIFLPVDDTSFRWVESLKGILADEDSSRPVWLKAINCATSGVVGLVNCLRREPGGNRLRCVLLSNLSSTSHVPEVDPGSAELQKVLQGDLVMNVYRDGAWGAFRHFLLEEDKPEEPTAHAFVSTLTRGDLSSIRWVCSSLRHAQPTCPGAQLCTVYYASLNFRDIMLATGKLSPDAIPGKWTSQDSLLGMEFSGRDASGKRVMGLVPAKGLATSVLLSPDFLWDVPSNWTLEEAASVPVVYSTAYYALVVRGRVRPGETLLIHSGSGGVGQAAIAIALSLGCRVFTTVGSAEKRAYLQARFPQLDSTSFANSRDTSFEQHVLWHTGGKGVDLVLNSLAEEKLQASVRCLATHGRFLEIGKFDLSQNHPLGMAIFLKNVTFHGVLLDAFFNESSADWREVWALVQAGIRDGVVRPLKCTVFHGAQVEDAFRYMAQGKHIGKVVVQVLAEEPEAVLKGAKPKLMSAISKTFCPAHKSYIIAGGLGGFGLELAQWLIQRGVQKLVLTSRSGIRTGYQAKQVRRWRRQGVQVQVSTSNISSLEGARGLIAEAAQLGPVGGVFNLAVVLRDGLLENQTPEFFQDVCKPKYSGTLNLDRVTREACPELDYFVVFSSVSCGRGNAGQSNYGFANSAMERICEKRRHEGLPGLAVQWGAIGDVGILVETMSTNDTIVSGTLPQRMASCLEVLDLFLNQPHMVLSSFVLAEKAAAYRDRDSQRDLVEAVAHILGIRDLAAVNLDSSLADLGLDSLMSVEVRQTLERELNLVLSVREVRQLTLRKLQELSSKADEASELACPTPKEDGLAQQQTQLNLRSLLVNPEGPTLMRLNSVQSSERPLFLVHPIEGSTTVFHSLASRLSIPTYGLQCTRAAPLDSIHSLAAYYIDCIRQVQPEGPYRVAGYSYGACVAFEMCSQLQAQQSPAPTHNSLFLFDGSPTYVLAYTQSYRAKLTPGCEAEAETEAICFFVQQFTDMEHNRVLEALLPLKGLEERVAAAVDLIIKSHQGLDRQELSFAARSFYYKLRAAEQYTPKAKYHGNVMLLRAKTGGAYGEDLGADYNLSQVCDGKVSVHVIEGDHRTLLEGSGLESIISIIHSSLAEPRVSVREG
Kallikrein-7, sequence (P49862 whole entry): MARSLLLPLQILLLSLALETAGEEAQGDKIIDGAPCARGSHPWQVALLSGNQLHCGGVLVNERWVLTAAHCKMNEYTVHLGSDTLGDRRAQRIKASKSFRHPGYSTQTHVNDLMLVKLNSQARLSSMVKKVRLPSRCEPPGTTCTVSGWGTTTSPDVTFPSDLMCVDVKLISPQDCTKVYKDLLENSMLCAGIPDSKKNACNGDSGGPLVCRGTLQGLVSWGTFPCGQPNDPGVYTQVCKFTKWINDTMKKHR

IC50 [7] | IC50 [8] | SMILES | IC50 [1] | IC50 [2] | IC50 [3] | IC50 [4] | IC50 [5] | IC50 [6] | further results
– | – | Cc1csc(-c2coc3cc(O)cc(C)c3c2=O)n1 | > 50 µM (inactive) | 10.4 µM (inactive) | > 49.8 µM (inactive) | 2.54 µM (active) | > 66.2 µM (inactive) | > 88.8 µM (inactive) | –
– | – | O=c1cc(CN2CC(O)Cc3ccc4ccccc4c32)nc2sccn12 (configuration not stated) | > 50 µM (inactive) | 3.29 µM (active) | > 49.7 µM (inactive) | 4.12 µM (active) | > 66.2 µM (inactive) | > 88.8 µM (inactive) | –
– | – | CCCCNC(=O)CCC(=O)NNc1nc2ccccc2c2nc(-c3ccccc3)nn12 | > 50 µM (inactive) | 7.27 µM (active) | > 49.8 µM (inactive) | 2.69 µM (active) | > 66.2 µM (inactive) | > 88.8 µM (inactive) | –
7.81 µM (active) | 5.16 µM (active) | CN(Cc1cccs1)C(=O)Cn1cnc2cc([N+](=O)[O-])ccc2c1=O | – | – | – | – | – | – | –
– | – | Cc1cc(O)cc2c(=O)c3ccccc3sc12 | 0.009 µM (active) | 8.54 µM (active) | > 49.8 µM (inactive) | 3.64 µM (active) | > 66.3 µM (inactive) | > 88.8 µM (inactive) | –
– | – | CN(Cc1ccccc1)C(=O)c1[nH]cnc1C(=O)N[C@@H](Cc1ccccc1)C(=O)OC(C)(C)C | > 50 µM (inactive) | 5.87 µM (active) | > 49.8 µM (inactive) | 0.515 µM (active) | > 66.2 µM (inactive) | > 88.8 µM (inactive) | –
11.7 µM (active) | 7.25 µM (active) | O=C(/C=C/c1cccc([N+](=O)[O-])c1)NCCSCc1cccc(Cl)c1 | – | – | – | – | – | – | CC50 [9]: 14.3 µM (active)
2.71 µM (active) | 3.99 µM (active) | CCOC(=O)c1cc2c(=O)n3ccccc3nc2n(CC2CCCO2)/c1=N/C(=O)/C=C/c1ccccc1 (configuration not stated) | – | – | – | – | – | – | EC50 [10]: > 69.5 µM (inactive)
– | – | COc1ccc2nc(-c3ccc(F)cc3)sc2c1 | – | – | – | – | – | – | AC50 [11]: > 52 µM (inactive); AC50 [12]: > 52 µM (inactive); AC50 [13]: 2.35 µM (active); AC50 [14]: 2.55 µM (active)

— ChEMBL document CHEMBL1201862, “PubChem BioAssay data set” (2004)
